Data as given in patent EP4631959A2, “NOVEL MINIGASTRIN-DERIVED CHOLECYSTOKININ 2 RECEPTOR BINDING MOLECULES FOR IMAGING AND TARGETED RADIOTHERAPY” (priority 2022, dated 2024).
Read-outs that look alike come from different tables or passages of the source. Starred links: 1 amine or outer side, 2 acyl side, 3 side chain; linkers in the order of their positions; H or OH if unused. Non-standard residues stand in square brackets, D forms with d. Residues, ends and D or L forms follow the SMILES beside them. *: point of attachment. DOTA = O=C(O)CN1CCN(CC(=O)O)CCN(CC(=O)*)CCN(CC(=O)O)CC1; PEG12 = NCCOCCOCCOCCOCCOCCOCCOCCOCCOCCOCCOCCOCCC(=O)O; d(γGlu) = O=C(O)[C@@H](CCC(=O)[*:2])N[*:1]; PEG8 = NCCOCCOCCOCCOCCOCCOCCOCCOCCC(=O)O; 1Nal = N[C@@H](Cc1cccc2ccccc12)C(=O)O; NMeNle = CCCC[C@H](NC)C(=O)O

How the values were obtained:
CCK-2R = molecular target: T1, CCK-2R (Rattus norvegicus, UniProt P30553); assay: Determination of IC50: CCK-2R affinity on AR4-2J cells, competition with [^177Lu]Lu-DOTA-PP-F11N; assay type: binding
T1 construct: The CCK-2R expressing rat pancreatic tumor cells AR4-2J; host or cells: AR4-2J rat pancreatic tumor cells
T1 sequence (P30553 1-452): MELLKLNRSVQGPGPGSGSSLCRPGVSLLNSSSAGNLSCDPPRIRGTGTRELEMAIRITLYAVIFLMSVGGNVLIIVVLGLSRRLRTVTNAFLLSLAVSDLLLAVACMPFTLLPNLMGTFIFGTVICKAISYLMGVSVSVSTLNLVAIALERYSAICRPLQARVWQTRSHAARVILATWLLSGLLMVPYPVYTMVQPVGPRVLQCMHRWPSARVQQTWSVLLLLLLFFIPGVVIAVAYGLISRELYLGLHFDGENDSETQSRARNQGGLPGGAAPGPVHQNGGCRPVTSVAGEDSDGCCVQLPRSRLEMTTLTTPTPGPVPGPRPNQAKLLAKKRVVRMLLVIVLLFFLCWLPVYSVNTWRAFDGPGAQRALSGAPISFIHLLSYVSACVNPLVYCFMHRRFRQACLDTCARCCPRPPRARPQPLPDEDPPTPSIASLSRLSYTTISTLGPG
Procedure: AR4-2J cells were harvested 24 ± 2 h before the experiment and seeded in 24-well plates (2.0 × 10^5 cells in 1 mL/well). After removal of the nutrient medium (RPMI 1640, 5 mM L-Gln, 5 mL non-essential amino acids (100×), 10% FCS), the cells were washed once with 500 µL PBS. Thereafter, 200 µL nutrient medium (5% BSA, v/v) were added. Next, 25 µL per well of solutions containing either nutrient medium (5% BSA, v/v) as control or the respective compound in increasing concentration (10^-10 - 10^-4 M), were added with subsequent addition of 25 µL [^177Lu]Lu-DOTA-PP-F11N (0.3 pmol/well).
All experiments were performed in triplicate for each concentration. After 3 h incubation at 37 °C, the experiment was terminated by removal of the medium and consecutive rinsing with 300 µL PBS. The media of both steps were combined in one fraction and represent the amount of free radiolabeled reference. Afterwards, the cells were lysed with 300 µL of 1 M NaOH for at least 15 min and united with the 300 µL NaOH of the following washing step. Quantification of bound and free radiolabeled reference was accomplished in a γ-counter. IC50 determination for each conjugate was repeated twice.

[1] = n-Octanol-PBS distribution coefficient (logD7.4); assay type: physicochemical; conditions: pH = 7.4, ^177Lu-labeled
Procedure: Approximately 1 MBq of the labeled tracer was dissolved in 1 mL of a 1/1 mixture (v/v) of phosphate buffered saline (PBS, pH = 7.4) and n-octanol in an Eppendorf tube (1.5 mL). After vigorous mixing of the suspension for 3 min at rt, the vial was centrifuged at 9,000 rpm for 5 min (Biofuge 15, Heraeus Sepatech, Osterode, Germany) and 200 µL aliquots of both layers were measured in a γ-counter. The experiment was repeated at least five times.

[2] = AR4-2J cells; ^natLu-labeled; read-out: IC50 [nM] (n = 3), ^natLu-labeled
[3] = read-out: IC50 [nM] (n = 3), ^natLu-labeled; AR4-2J cells; ^natLu-labeled

IC50 (CCK-2R; [2])	SMILES	logD7.4 (n ≥ 5), ^177Lu-labeled [1]	IC50 (CCK-2R; [3])
7.9 ± 0.2 nM	CCCC[C@@H](C(=O)N[C@@H](CC(=O)O)C(=O)N[C@@H](Cc1cccc2ccccc12)C(N)=O)N(C)C(=O)[C@H](Cc1c[nH]c2ccccc12)NC(=O)CCOCCOCCOCCOCCOCCOCCOCCOCCNC(=O)CC[C@@H](NC(=O)CN1CCN(CC(=O)O)CCN(CC(=O)O)CCN(CC(=O)O)CC1)C(=O)O [DOTA-CCK-80, DOTA-γ-glu-(PEG)7-Trp-(N-Me)Nle-Asp-1-Nal-NH2] ({DOTA-d(γGlu)-PEG8}-W[NMeNle]D[1Nal]-NH2)	−2.51 ± 0.09	
6.3 ± 0.7 nM	CCCC[C@@H](C(=O)N[C@@H](CC(=O)O)C(=O)N[C@@H](Cc1cccc2ccccc12)C(N)=O)N(C)C(=O)[C@H](Cc1c[nH]c2ccccc12)NC(=O)CCOCCOCCOCCOCCOCCOCCOCCOCCOCCOCCOCCOCCNC(=O)CC[C@@H](NC(=O)CN1CCN(CC(=O)O)CCN(CC(=O)O)CCN(CC(=O)O)CC1)C(=O)O [DOTA-CCK-81, DOTA-γ-glu-(PEG)11-Trp-(N-Me)Nle-Asp-1-Nal-NH2] ({DOTA-d(γGlu)-PEG12}-W[NMeNle]D[1Nal]-NH2)	−2.47 ± 0.10	
	CCCC[C@H](NC(=O)[C@H](Cc1c[nH]c2ccccc12)NC(=O)CNC(=O)[C@H](Cc1ccc(O)cc1)NC(=O)[C@H](C)NC(=O)CC[C@@H](NC(=O)CC[C@@H](NC(=O)CC[C@@H](NC(=O)CC[C@@H](NC(=O)CC[C@@H](NC(=O)CC[C@@H](NC(=O)CC[C@@H](NC(=O)CC[C@@H](CO)NC(=O)[C@@H](CNC(=O)c1ccc([Si](F)(C(C)(C)C)C(C)(C)C)cc1)NC(=O)CN1CCN(CC(=O)O)CCN(CC(=O)O)CCN(CC(=O)O)CC1)C(=O)O)C(=O)O)C(=O)O)C(=O)O)C(=O)O)C(=O)O)C(=O)O)C(=O)N[C@@H](CC(=O)O)C(=O)N[C@@H](Cc1ccccc1)C(N)=O [DOTA-MG-SiFA-29, DOTA-dap(SiFA)-Glutamol-(γ-glu)7-F11N]	−1.88 ± 0.07	6.55 ± 1.23 nM
	CCCC[C@@H](C(=O)N[C@@H](CC(=O)O)C(=O)N[C@@H](Cc1cccc2ccccc12)C(N)=O)N(C)C(=O)[C@H](Cc1c[nH]c2ccccc12)NC(=O)CNC(=O)[C@H](Cc1ccc(O)cc1)NC(=O)[C@H](C)NC(=O)CC[C@@H](NC(=O)CC[C@@H](NC(=O)CC[C@@H](NC(=O)CC[C@@H](NC(=O)CC[C@@H](NC(=O)CC[C@@H](NC(=O)CC[C@@H](NC(=O)CC[C@@H](NC(=O)[C@@H](CNC(=O)c1ccc([Si](F)(C(C)(C)C)C(C)(C)C)cc1)NC(=O)CN1CCN(CC(=O)O)CCN(CC(=O)O)CCN(CC(=O)O)CC1)C(=O)O)C(=O)O)C(=O)O)C(=O)O)C(=O)O)C(=O)O)C(=O)O)C(=O)O [DOTA-MG-SiFA-40, DOTA-dap(SiFA)-(γ-glu)8-MGS5]	−1.83 ± 0.04	8.27 ± 0.35 nM
	CCCC[C@H](NC(=O)[C@H](Cc1c[nH]c2ccccc12)NC(=O)CNC(=O)[C@H](Cc1ccc(O)cc1)NC(=O)[C@H](C)NC(=O)CC[C@@H](NC(=O)CC[C@@H](NC(=O)CC[C@@H](NC(=O)CC[C@@H](NC(=O)CC[C@@H](NC(=O)CC[C@@H](NC(=O)CC[C@@H](NC(=O)CCCNC(=O)[C@@H](CNC(=O)c1ccc([Si](F)(C(C)(C)C)C(C)(C)C)cc1)NC(=O)CN1CCN(CC(=O)O)CCN(CC(=O)O)CCN(CC(=O)O)CC1)C(=O)O)C(=O)O)C(=O)O)C(=O)O)C(=O)O)C(=O)O)C(=O)O)C(=O)N[C@@H](CC(=O)O)C(=O)N[C@@H](Cc1ccccc1)C(N)=O [DOTA-MG-SiFA-44, DOTA(-dap(SiFA)-GABA-(γ-glu)7-F11N]	−2.01 ± 0.07	3.47 ± 0.27 nM

SMILES	IC50 (CCK-2R; [2])	logD7.4 (n ≥ 5), ^177Lu-labeled [1]	IC50 (CCK-2R; [3])
CCCC[C@H](NC(=O)[C@H](Cc1c[nH]c2ccccc12)NC(=O)CNC(=O)[C@H](Cc1ccc(O)cc1)NC(=O)[C@H](C)NC(=O)CC[C@@H](NC(=O)CC[C@@H](NC(=O)CC[C@@H](NC(=O)CC[C@@H](NC(=O)CC[C@@H](NC(=O)CC[C@@H](NC(=O)[C@@H](CNC(=O)c1ccc([Si](F)(C(C)(C)C)C(C)(C)C)cc1)NC(=O)CN1CCN(CC(=O)O)CCN(CC(=O)O)CCN(CC(=O)O)CC1)C(=O)O)C(=O)O)C(=O)O)C(=O)O)C(=O)O)C(=O)O)C(=O)N[C@@H](CC(=O)O)C(=O)N[C@@H](Cc1ccccc1)C(N)=O [DOTA-MG-SiFA-19]	7.54 ± 0.26 nM	−2.70 ± 0.09	
